Laboratory results published in patent US6172074A, “Imidazopyridines and oxazolopyridines” (Byk Gulden Lomberg Chemische Fabrik GmbH, priority 1996, dated 2001).
Where a name gives a salt, the structure may show the parent alone.

The compounds below were run on PDE4 (assay: Inhibition of the PDE4 activity (Bauer and Schwabe method, adapted to microtiter plates)). Settings: inhibitory concentration as -log IC50 (mol/l).
Format: biochemical

Point of comparison: COc1ccc(-c2nc3cccnc3o2)c2c1OC1(CCCC1)C2 [Compound 2, 2-(2,3-Dihydro-7-methoxybenzofuran-2-spiro-1'-cyclopentan-4-yl)oxazolo[5,4-b]pyridine], “-log IC50” value 6.61. Against it:
- COc1ccc(-c2nc3ncccc3o2)c2c1OC1(CCCC1)C2 [Compound 1, 2-(2,3-Dihydro-7-methoxybenzofuran-2-spiro-1'-cyclopentan-4-yl)oxazolo[4,5-b]pyridine] — higher, 7.93
- COc1ccc(-c2nc3cnccc3o2)c2c1OC1(CCCC1)C2 [Compound 3, 2-(2,3-Dihydro-7-methoxybenzofuran-2-spiro-1'-cyclopentan-4-yl)oxazolo[4,5-c]pyridine] — higher, 8.76
- COc1ccc(-c2nc3cnccc3[nH]2)c2c1OC1(CCCC1)C2 [Compound 4, 2-(2,3-Dihydro-7-methoxybenzofuran-2-spiro-1'-cyclopentan-4-yl)imidazolo[4,5-c]pyridin] — higher, 8.08
- COc1ccc(-c2nc3cnccc3[nH]2)c2c1OC1(CCCCC1)C2 [Compound 5, 2-(2,3-Dihydro-7-methoxybenzofuran-2-spiro-1'-cyclohexan-4-yl)imidazolo[4,5-c]pyridine] — higher, 7.52
- COc1ccc(-c2nc3ncccc3[nH]2)c2c1OC1(CCCCC1)C2 [Compound 6, 2-(2,3-Dihydro-7-methoxybenzofuran-2-spiro-1'-cyclohexan-4-yl)imidazo[4,5-b]pyridine dihydrochloride hemihydrate] — higher, 6.90
- COc1ccc(-c2nc3c(Cl)nccc3[nH]2)c2c1OC1(CCCC1)C2 [Compound 7, 4-Chloro-2-(2,3-dihydro-7-methoxybenzofuran-2-spiro-1'-cyclopentan-4-yl)imidazo[4,5-c]pyridine] — higher, 7.98
